Data as given in PubChem BioAssay AID2060493 (Molecular Pharmacology Branch, DTP, NCI, 2025).

Tested on: 616215-338-R-J1-PDC tumor spheroids, viability
Assay: Anticancer human tumor 616215-338-R-J1-PDC patient-derived colon adenocarcinoma cell line growth inhibition [GQUAD]
Conditions: spheroids with HUVEC and MSC; for IC50: curve of first compound; for viability, T/C: stronger effect = lower value; active = viability on the fitted dose curve at most 10% of control; inactive = the rest
Outline: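 Tumor cells were grown as complex spheroids with HUVEC endothelial cells and mesenchymal stem cells as stroma. G-quadruplex stabilizers were combined with targeted agents over half-log dilutions from near the clinical Cmax, or from 10 microM.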

[1] = second compound 0.0316 µM, first compound 0.0316 µM
[2] = second compound 0.0316 µM, first compound 0.1 µM
[3] = second compound 0.0316 µM, first compound 0.316 µM
[4] = second compound 0.0316 µM, first compound 1 µM
[5] = second compound 0.0316 µM, first compound 3.16 µM
[6] = second compound 0.0316 µM, first compound 10 µM
[7] = second compound 0.1 µM, first compound 0.0316 µM
[8] = second compound 0.1 µM, first compound 0.1 µM
[9] = second compound 0.1 µM, first compound 0.316 µM
[10] = second compound 0.1 µM, first compound 1 µM
[11] = second compound 0.1 µM, first compound 3.16 µM
[12] = second compound 0.1 µM, first compound 10 µM
[13] = second compound 0.316 µM, first compound 0.0316 µM
[14] = second compound 0.316 µM, first compound 0.1 µM
[15] = second compound 0.316 µM, first compound 0.316 µM
[16] = second compound 0.316 µM, first compound 1 µM
[17] = second compound 0.316 µM, first compound 3.16 µM
[18] = second compound 0.316 µM, first compound 10 µM
[19] = second compound 1 µM, first compound 0.0316 µM
[20] = second compound 1 µM, first compound 0.1 µM
[21] = second compound 1 µM, first compound 0.316 µM
[22] = second compound 1 µM, first compound 1 µM
[23] = second compound 1 µM, first compound 3.16 µM
[24] = second compound 1 µM, first compound 10 µM
[25] = second compound 3.16 µM, first compound 0.0316 µM
[26] = second compound 3.16 µM, first compound 0.1 µM
[27] = second compound 3.16 µM, first compound 0.316 µM
[28] = second compound 3.16 µM, first compound 1 µM
[29] = second compound 3.16 µM, first compound 3.16 µM
[30] = second compound 3.16 µM, first compound 10 µM
[31] = second compound 10 µM, first compound 0.0316 µM
[32] = second compound 10 µM, first compound 0.1 µM
[33] = second compound 10 µM, first compound 0.316 µM
[34] = second compound 10 µM, first compound 1 µM
[35] = second compound 10 µM, first compound 3.16 µM
[36] = second compound 10 µM, first compound 10 µM
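Also: spheroids exposed to agents for 7 days before readout.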
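For viability, T/C in this document: percent viability relative to DMSO vehicle control wells taken as 100%.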

CC1COCCN1c1cc(-c2ccnn2C)c2ccnc(-c3ccn[nH]3)c2n1 (stereo unspecified) + Cc1[nH]c2ccc(F)cc2c1-c1nc2c3cccnc3c3ncccc3c2[nH]1
224 nM: IC50 (second compound 0.0316 µM)
inactive: viability, T/C [1] 96.6% | viability, T/C [2] 70.7% | viability, T/C [3] 41.7% | viability, T/C [4] 25.1% | viability, T/C [5] 30.2% | viability, T/C [6] 20.1% | viability, T/C [7] 97.8% | viability, T/C [8] 56.3% | viability, T/C [9] 34.1% | viability, T/C [10] 25.2% | viability, T/C [11] 24.9% | viability, T/C [12] 19.9% | viability, T/C [13] 91.5% | viability, T/C [14] 62.1% | viability, T/C [15] 40% | viability, T/C [16] 27.7% | viability, T/C [17] 22.6% | viability, T/C [18] 23.9% | viability, T/C [19] 91.5% | viability, T/C [20] 63% | viability, T/C [21] 33.6% | viability, T/C [22] 32.2% | viability, T/C [23] 22.9% | viability, T/C [24] 24.7% | viability, T/C [25] 91.9% | viability, T/C [26] 57.9% | viability, T/C [27] 30.2% | viability, T/C [28] 26.1% | viability, T/C [29] 21.2% | viability, T/C [30] 17.9% | viability, T/C [31] 90.1% | viability, T/C [32] 50% | viability, T/C [33] 40.3% | viability, T/C [34] 31.5% | viability, T/C [35] 22.6% | viability, T/C [36] 16.4%
140 nM: IC50 (second compound 3.16 µM) | IC50 (second compound 10 µM)
185 nM: IC50 (second compound 0.316 µM)
170 nM: IC50 (second compound 1 µM)
139 nM: IC50 (second compound 0.1 µM)

CC(C)n1c(=O)n(C)c2cnc3cc(F)c(-c4ccc(OCCCN5CCCCC5)nc4)cc3c21 + Cc1[nH]c2ccc(F)cc2c1-c1nc2c3cccnc3c3ncccc3c2[nH]1
> 10000 nM: IC50 (second compound 0.0316 µM) | IC50 (second compound 0.1 µM) | IC50 (second compound 0.316 µM) | IC50 (second compound 1 µM) | IC50 (second compound 3.16 µM) | IC50 (second compound 10 µM)
inactive: viability, T/C [1] 102% | viability, T/C [2] 98.8% | viability, T/C [3] 97.5% | viability, T/C [4] 101% | viability, T/C [5] 117% | viability, T/C [6] 70.9% | viability, T/C [7] 103% | viability, T/C [8] 99.6% | viability, T/C [9] 100% | viability, T/C [10] 107% | viability, T/C [11] 112% | viability, T/C [12] 85.7% | viability, T/C [13] 107% | viability, T/C [14] 99.3% | viability, T/C [15] 100% | viability, T/C [16] 106% | viability, T/C [17] 100% | viability, T/C [18] 72.9% | viability, T/C [19] 99% | viability, T/C [20] 116% | viability, T/C [21] 97.5% | viability, T/C [22] 93.6% | viability, T/C [23] 101% | viability, T/C [24] 95.7% | viability, T/C [25] 99% | viability, T/C [26] 93.8% | viability, T/C [27] 87.3% | viability, T/C [28] 98.7% | viability, T/C [29] 104% | viability, T/C [30] 57.4% | viability, T/C [31] 94.5% | viability, T/C [32] 94.7% | viability, T/C [33] 99.1% | viability, T/C [34] 91.2% | viability, T/C [35] 107% | viability, T/C [36] 87%

Cc1cccc(N(C)C(=O)C2C(O)CCN2c2nc(C)cc(C(F)(F)F)c2C#N)c1 (stereo unspecified) + Cc1cnc(CNC(=O)c2c(=O)c3ccc(N4CCCN(C)CC4)nc3n3c2sc2ccccc23)cn1
< 31.6 nM: IC50 (second compound 0.1 µM) | IC50 (second compound 0.316 µM) | IC50 (second compound 1 µM) | IC50 (second compound 3.16 µM) | IC50 (second compound 10 µM)
inactive: viability, T/C [1] 106% | viability, T/C [2] 101% | viability, T/C [3] 109% | viability, T/C [4] 103% | viability, T/C [5] 95.8% | viability, T/C [6] 98.6% | viability, T/C [7] 37.9% | viability, T/C [8] 68.2% | viability, T/C [9] 56.2% | viability, T/C [10] 80.6% | viability, T/C [11] 81.8% | viability, T/C [12] 49% | viability, T/C [13] 50.5% | viability, T/C [14] 46.1% | viability, T/C [15] 50.2% | viability, T/C [16] 48.9% | viability, T/C [17] 57.9% | viability, T/C [18] 42% | viability, T/C [19] 32.6% | viability, T/C [20] 35.1% | viability, T/C [21] 39.1% | viability, T/C [22] 31.9% | viability, T/C [23] 38.3% | viability, T/C [24] 29.3% | viability, T/C [25] 31.7% | viability, T/C [26] 27.9% | viability, T/C [27] 33.5% | viability, T/C [28] 30.5% | viability, T/C [29] 29.1% | viability, T/C [30] 34.8% | viability, T/C [31] 30.5% | viability, T/C [32] 37% | viability, T/C [33] 31.1% | viability, T/C [34] 26.7% | viability, T/C [35] 32.2% | viability, T/C [36] 29.9%
> 10000 nM: IC50 (second compound 0.0316 µM)
